The source made the active and inactive calls. No cut-off for these calls is given here. Where only a bound is given, the exact number is not on record here.

Series [1] addresses Dual specificity mitogen-activated protein kinase kinase 1 (Homo sapiens) (UniProt Q02750). As to the kind of experiment: Inhibition of MEK1 at 1 uM.
Series [2] deals with Hepatocyte growth factor receptor (Homo sapiens) (UniProt P08581). As to the kind of experiment: Inhibition of MET at 5 uM.
Series [3] has as its target Focal adhesion kinase 1 (Homo sapiens) (UniProt Q05397). As to the kind of experiment: Inhibition of FAK at 5 uM.
Series [4] deals with Fibroblast growth factor receptor 1 (Homo sapiens) (UniProt P11362). As to the kind of experiment: Inhibition of FGFR1 at 1 uM.
Chain of Fibroblast growth factor receptor 1 (Homo sapiens) (P11362 22-822 limits assumed): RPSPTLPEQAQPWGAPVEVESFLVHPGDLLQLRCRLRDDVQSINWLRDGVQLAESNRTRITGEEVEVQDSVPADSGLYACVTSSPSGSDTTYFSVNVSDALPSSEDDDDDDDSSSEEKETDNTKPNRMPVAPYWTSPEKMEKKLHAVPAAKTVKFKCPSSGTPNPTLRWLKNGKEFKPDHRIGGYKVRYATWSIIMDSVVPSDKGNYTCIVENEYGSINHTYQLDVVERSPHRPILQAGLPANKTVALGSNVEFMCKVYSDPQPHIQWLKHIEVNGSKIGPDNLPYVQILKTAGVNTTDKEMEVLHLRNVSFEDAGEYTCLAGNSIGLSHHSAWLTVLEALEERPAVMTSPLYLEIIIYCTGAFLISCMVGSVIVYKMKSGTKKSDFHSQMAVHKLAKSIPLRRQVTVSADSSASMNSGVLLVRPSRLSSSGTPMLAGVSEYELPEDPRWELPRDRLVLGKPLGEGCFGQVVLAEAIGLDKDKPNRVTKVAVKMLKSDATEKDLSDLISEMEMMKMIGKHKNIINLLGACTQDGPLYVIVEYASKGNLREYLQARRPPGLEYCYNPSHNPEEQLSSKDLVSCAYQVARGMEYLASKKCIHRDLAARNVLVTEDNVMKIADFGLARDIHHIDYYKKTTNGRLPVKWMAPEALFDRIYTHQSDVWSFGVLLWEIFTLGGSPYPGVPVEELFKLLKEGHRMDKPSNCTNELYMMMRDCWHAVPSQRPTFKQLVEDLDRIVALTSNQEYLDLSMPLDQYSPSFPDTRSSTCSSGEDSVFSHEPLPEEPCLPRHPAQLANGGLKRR
In series [5] the target is T1, Inhibitor of nuclear factor kappa-B kinase subunit beta (Homo sapiens) (UniProt O14920).
T1 sequence (whole entry): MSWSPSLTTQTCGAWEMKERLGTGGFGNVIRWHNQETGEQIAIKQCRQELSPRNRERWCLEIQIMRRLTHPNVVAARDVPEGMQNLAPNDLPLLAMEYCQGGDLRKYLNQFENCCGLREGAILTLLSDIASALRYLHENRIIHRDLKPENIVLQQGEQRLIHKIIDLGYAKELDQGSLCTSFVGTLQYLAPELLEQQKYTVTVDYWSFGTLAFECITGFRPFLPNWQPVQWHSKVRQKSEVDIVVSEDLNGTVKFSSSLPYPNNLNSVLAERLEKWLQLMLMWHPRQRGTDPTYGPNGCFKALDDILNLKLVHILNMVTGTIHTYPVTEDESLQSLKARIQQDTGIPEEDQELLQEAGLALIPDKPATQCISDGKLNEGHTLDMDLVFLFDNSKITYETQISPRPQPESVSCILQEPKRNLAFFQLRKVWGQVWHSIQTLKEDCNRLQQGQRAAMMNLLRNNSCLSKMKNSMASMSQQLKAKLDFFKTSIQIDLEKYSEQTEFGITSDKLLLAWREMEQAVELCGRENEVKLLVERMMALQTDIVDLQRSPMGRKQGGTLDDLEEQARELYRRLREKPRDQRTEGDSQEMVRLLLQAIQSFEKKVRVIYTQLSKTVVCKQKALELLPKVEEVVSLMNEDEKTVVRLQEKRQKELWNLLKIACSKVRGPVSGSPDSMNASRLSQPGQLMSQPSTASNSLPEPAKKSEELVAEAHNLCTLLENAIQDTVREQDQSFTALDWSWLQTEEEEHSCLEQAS
Nature of the series: Inhibition of IKKbeta at 5 uM.

For series [6], the target named is Serine/threonine-protein kinase PAK 1 (Homo sapiens) (UniProt Q13153). As to the kind of experiment: Inhibition of PAK1 at 1 uM.
Chain of Serine/threonine-protein kinase PAK 1 (Homo sapiens) (Q13153 whole entry, canonical isoform): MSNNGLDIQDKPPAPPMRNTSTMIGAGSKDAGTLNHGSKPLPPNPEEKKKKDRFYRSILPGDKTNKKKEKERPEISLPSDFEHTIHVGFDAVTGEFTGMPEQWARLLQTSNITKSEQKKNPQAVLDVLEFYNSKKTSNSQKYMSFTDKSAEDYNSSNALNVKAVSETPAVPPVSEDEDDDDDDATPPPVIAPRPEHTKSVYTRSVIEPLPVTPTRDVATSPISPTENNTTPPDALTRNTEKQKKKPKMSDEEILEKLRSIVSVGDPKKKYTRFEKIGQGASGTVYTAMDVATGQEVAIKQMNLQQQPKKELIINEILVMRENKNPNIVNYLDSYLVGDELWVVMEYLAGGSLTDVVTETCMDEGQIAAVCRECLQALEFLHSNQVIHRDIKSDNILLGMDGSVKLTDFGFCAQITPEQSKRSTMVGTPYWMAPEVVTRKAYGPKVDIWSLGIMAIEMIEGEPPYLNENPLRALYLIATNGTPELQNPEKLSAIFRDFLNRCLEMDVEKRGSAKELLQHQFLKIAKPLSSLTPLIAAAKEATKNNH
For series [7], the target named is Casein kinase I isoform alpha (Homo sapiens) (UniProt P48729). As to the kind of experiment: Inhibition of CK1alpha1 at 5 uM.
Chain of Casein kinase I isoform alpha (Homo sapiens) (P48729 2-337 limits assumed): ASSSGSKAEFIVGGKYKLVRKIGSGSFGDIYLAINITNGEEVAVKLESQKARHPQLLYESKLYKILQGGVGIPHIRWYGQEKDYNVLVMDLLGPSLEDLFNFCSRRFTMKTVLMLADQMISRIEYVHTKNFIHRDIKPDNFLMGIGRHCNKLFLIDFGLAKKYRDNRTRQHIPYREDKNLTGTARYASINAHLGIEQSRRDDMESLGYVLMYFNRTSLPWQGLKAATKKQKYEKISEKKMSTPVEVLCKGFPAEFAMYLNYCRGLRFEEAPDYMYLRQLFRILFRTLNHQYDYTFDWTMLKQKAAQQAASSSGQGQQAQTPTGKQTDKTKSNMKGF
Series [8] addresses Dual specificity tyrosine-phosphorylation-regulated kinase 1A (Homo sapiens) (UniProt Q13627). As to the kind of experiment: Inhibition of DYRK1A at 5 uM.
The target of series [9] is Serine/threonine-protein kinase pim-2 (Homo sapiens) (UniProt Q9P1W9). As to the kind of experiment: Inhibition of PIM2 at 1 uM.
Chain of Serine/threonine-protein kinase pim-2 (Homo sapiens) (Q9P1W9 whole entry, looked up): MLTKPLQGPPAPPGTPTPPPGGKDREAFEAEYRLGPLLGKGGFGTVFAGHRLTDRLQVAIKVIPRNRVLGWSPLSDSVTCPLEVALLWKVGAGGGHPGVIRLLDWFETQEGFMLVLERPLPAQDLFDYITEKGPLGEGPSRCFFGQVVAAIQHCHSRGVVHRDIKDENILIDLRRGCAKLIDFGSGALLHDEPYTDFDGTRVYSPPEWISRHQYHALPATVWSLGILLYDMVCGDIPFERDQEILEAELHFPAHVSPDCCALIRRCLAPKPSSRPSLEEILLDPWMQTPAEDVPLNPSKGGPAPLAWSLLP
The target of a further series is T2, CYP1A2 (Homo sapiens, UniProt P05177).
T2 sequence (P05177 whole entry): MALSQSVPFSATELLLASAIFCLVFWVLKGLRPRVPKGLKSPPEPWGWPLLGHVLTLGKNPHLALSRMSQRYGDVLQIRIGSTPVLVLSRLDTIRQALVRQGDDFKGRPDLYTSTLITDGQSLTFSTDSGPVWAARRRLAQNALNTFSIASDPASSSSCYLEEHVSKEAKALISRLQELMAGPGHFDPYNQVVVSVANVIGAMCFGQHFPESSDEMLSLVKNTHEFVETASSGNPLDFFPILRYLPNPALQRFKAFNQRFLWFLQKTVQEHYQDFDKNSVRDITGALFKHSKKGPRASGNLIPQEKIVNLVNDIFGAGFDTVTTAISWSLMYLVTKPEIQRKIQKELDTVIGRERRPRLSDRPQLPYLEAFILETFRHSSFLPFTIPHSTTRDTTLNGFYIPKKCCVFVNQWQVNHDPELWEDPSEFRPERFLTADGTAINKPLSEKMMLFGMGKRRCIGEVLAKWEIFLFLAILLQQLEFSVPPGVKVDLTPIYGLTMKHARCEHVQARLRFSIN
As to the kind of experiment: Inhibition of CYP1A2 at 10 uM. Type of series: ADME.

Series [10] concerns the target Serine/threonine-protein kinase mTOR (Homo sapiens, UniProt P42345). Nature of the series: Inhibition of mTOR.
Another series concerns the target PI3K p110 beta/p85 alpha (Homo sapiens, UniProt P42338). Nature of the series: Inhibition of human PI3Kbeta (p110beta/p85alpha) by ADP accumulation based HTRF assay. The series is classed as protein-complex assay. The conditions noted are these: read-out: Ki(app).
The target in series [11] is Phosphatidylinositol 4,5-bisphosphate 3-kinase catalytic subunit alpha isoform (Homo sapiens, UniProt P42336, E542K). As to the kind of experiment: Inhibition of human PI3Kalpha E542K mutant by ADP accumulation based HTRF assay. The conditions noted are these: read-out: Ki(app). (TR-FRET usually uses a lanthanide donor and a delayed reading to cut background.)
Series [12] deals with Phosphatidylinositol 4,5-bisphosphate 3-kinase catalytic subunit gamma isoform (Homo sapiens, UniProt P48736). Nature of the series: Inhibition of human PI3Kgamma by ADP accumulation based HTRF assay. The conditions noted are these: read-out: Ki(app).
Series [13] has as its target Phosphatidylinositol 4,5-bisphosphate 3-kinase catalytic subunit alpha isoform (Homo sapiens, UniProt P42336, E545K). As to the kind of experiment: Inhibition of human PI3Kalpha E545K mutant by ADP accumulation based HTRF assay. To be noted: read-out: Ki(app).
The target in series [14] is Phosphatidylinositol 4,5-bisphosphate 3-kinase catalytic subunit alpha isoform (Homo sapiens, UniProt P42336, H1047R). As to the kind of experiment: Inhibition of human PI3Kalpha H1047R mutant by ADP accumulation based HTRF assay. The conditions noted are these: read-out: Ki(app).
Series [15] is described as follows: Clearance in BALB-C mouse. To be noted: in vivo. The series is classed as ADME, organism-based.
Series [16] has as its system Mus musculus. Nature of the series: Antitumor activity in tamoxifen-induced mouse tumor model assessed as reduction in lung [18F]FDG uptake at 50 mg/kg/day, po for 3 weeks by PET-CT method. Type of series: functional, organism-based.
The test system of series [17] is Mus musculus. Nature of the series: In-vivo inhibition of PI3Kalpha-mediated AKT Ser 473 phosphorylation in lung of tamoxifen-induced mouse tumor model at 50 mg/kg, po measured 2 to 4 hrs post dose. The series is classed as functional.
Series [18] relates to Mus musculus. As to the kind of experiment: Antitumor activity in tamoxifen-induced mouse tumor model assessed as reduction in lung metabolic activity at 50 mg/kg/day, po for 3 weeks by [18F]FDG uptake based PET-CT method. Type of series: functional, organism-based.
Series [19] in a line: Oral bioavailability in BALB-C mouse. The conditions noted are these: in vivo. The series is classed as ADME, organism-based.
Series [20] concerns Mus musculus. As to the kind of experiment: Antitumor activity in tamoxifen-induced mouse tumor model assessed as tumor growth inhibition at 50 mg/kg/day, po for 3 weeks by computed tomography. The series is classed as functional. To be noted: 504 h, read-out: GI.
Series [21] has as its target PI3-kinase p110-delta/p85-alpha (Homo sapiens, UniProt O00329). As to the kind of experiment: Inhibition of human PI3Kdelta (p110delta/p85alpha) by ADP accumulation based HTRF assay. The series is classed as protein-complex assay. The conditions noted are these: read-out: Ki(app).

Chain of Dual specificity mitogen-activated protein kinase kinase 1 (Homo sapiens) (Q02750 whole entry): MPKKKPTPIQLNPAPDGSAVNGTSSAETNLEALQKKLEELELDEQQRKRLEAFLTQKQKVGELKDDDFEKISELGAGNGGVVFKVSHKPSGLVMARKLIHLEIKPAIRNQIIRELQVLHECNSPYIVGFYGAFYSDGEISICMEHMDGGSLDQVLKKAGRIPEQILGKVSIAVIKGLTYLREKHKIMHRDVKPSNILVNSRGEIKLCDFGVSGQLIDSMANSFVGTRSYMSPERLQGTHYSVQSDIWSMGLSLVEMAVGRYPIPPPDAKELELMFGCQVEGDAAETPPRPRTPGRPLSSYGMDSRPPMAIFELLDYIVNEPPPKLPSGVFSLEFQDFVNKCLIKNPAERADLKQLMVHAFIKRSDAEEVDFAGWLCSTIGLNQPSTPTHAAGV
Chain of Hepatocyte growth factor receptor (Homo sapiens) (P08581 whole entry): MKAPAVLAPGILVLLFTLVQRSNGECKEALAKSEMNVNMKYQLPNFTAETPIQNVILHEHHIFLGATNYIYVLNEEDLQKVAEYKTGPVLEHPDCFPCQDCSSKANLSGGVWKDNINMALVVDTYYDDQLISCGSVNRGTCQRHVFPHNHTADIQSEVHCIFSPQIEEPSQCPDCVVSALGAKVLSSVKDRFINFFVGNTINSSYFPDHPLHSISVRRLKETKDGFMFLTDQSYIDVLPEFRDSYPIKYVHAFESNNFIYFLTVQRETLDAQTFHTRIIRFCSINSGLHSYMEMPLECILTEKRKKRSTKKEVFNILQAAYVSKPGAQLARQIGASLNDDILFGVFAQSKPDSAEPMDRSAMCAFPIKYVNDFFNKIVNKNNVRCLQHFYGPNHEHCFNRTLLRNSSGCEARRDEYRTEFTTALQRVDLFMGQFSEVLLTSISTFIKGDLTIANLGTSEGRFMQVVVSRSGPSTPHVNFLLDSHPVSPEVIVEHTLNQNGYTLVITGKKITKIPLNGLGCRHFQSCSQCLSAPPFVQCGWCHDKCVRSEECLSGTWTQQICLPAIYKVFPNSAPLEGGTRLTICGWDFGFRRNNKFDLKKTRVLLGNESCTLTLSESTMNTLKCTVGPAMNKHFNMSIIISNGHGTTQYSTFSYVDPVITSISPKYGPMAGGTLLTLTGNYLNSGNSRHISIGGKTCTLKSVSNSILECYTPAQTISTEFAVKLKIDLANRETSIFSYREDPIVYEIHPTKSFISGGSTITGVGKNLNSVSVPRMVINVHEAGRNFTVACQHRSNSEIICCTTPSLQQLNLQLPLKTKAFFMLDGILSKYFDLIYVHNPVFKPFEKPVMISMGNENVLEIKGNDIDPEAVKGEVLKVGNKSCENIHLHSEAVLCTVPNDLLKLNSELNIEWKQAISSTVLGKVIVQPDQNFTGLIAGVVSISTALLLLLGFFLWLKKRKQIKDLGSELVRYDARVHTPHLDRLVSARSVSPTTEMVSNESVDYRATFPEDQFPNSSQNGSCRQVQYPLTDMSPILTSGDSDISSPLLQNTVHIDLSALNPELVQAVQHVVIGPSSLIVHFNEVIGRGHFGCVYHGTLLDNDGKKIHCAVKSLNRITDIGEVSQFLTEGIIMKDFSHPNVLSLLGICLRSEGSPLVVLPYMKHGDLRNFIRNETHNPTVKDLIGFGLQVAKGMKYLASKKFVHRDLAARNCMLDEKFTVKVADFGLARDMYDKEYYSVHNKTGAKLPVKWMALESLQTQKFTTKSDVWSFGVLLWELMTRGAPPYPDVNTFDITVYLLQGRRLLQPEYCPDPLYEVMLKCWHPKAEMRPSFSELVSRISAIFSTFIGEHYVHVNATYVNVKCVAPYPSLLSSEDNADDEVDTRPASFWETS
Chain of Focal adhesion kinase 1 (Homo sapiens) (Q05397 2-1052 limits assumed): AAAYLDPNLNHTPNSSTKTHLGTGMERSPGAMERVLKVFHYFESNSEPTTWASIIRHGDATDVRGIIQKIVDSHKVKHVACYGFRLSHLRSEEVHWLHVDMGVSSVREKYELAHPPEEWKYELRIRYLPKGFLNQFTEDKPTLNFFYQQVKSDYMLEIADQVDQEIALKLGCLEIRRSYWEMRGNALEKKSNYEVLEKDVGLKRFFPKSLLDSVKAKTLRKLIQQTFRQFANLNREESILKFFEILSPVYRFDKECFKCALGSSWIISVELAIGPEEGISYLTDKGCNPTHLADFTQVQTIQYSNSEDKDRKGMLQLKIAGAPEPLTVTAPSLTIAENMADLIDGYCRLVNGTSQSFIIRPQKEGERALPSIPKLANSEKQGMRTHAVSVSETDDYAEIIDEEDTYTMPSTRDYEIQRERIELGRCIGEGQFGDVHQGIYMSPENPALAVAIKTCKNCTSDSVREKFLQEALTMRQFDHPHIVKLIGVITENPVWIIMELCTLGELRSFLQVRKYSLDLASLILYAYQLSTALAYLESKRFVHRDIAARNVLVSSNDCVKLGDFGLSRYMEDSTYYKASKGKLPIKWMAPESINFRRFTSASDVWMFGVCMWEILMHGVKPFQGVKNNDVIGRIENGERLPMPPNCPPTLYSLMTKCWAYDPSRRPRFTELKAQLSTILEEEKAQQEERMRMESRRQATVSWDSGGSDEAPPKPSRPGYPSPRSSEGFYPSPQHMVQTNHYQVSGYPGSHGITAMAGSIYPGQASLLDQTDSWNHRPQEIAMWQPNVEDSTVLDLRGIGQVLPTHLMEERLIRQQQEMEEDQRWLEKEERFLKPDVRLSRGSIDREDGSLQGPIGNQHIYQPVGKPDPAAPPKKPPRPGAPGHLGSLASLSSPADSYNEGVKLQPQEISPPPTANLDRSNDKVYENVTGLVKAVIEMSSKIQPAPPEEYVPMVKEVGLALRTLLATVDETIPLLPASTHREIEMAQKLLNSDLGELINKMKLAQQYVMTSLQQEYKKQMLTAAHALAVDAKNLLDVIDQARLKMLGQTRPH

A word on the inhibition: it is the drop in the measured response relative to a control, in per cent. A lower inhibition goes with a response near the control. With `Cc1nc(N)ncc1-c1cn2cc(CN3CCN(S(C)(=O)=O)CC3)nc2c(N2CCOCC2)n1`, the inhibition in series [1], in series [2], in series [3], in [4], in [5] and in series [6] was < 30% throughout. Further, the inhibition in [7], in series [8] and in series [9] was < 30% in each case.

The term IC50 denotes the concentration needed to halve the response being measured. Lower therefore signals greater potency. Take `CS(=O)(=O)N1CCN(Cc2nc3c(N4CCOCC4)nc(-c4cnc(N)nc4)cn3c2Br)CC1`: the inhibition in series [1], in [2], in [3], in series [4], in [5] and in series [6] was < 30% in each case. The inhibition in series [7], in series [8] and in series [9] was < 30% each time. Further, the inhibition at 10 µM on CYP1A2 is < 30%. This molecule also came in with an IC50 in series [10] of 5.1 µM.

`CS(=O)(=O)N1CCN(Cc2cn3c(Cl)c(-c4cnc(N)nc4)nc(N4CCOCC4)c3n2)CC1`: the inhibition in [1], in [2], in [3], in series [4], in series [5] and in series [6] was < 30% throughout. Also, the inhibition in series [7], in series [8] and in [9] was < 30% each time. Also, the Ki on PI3K p110 beta/p85 alpha worked out at 0.212 µM; in series [11] it was 0.00277 µM; in series [12], 0.084 µM; in [13] it was 0.00173 µM; in [14] it was 0.00307 µM. In addition, the inhibition at 10 µM at CYP1A2 was < 30%. Moreover, half-maximal inhibition in [10] (IC50) required 5.71 µM.

The clearance is a measure of how efficiently the substance is removed, as volume per time. The bioavailability is dose-corrected exposure relative to a reference, in per cent. A higher bioavailability goes with much systemic uptake. For `CS(=O)(=O)N1CCN(Cc2cn3cc(-c4cnc(N)nc4)nc(N4CCOCC4)c3n2)CC1`, the inhibition in series [1], in series [2], in series [3], in series [4], in series [5] and in series [6] was < 30% throughout. In addition, the inhibition in [7], in series [8] and in [9] was < 30% throughout. The clearance in series [15] is 10 mL/min/kg. In addition, the inhibition at 10 µM at CYP1A2 is < 30%. Further, the outcome with Mus musculus [16] and in the series on Mus musculus [18] was Active. In addition, in the series with Mus musculus [17], the inhibition in vivo at 50 mg/kg is > 50%. In series [19], this molecule came in with a bioavailability of 90%. In addition, the inhibition in vivo at 50 mg/kg/day in the series on Mus musculus [20] came out at 51%. The molecule also registered a half-inhibitory concentration (IC50) in [10] of 4.88 µM.

For `Cc1c(CN2CCN(S(C)(=O)=O)CC2)nc2c(N3CCOCC3)nc(-c3cnc(N)nc3)cn12`, the inhibition in series [1], in [2], in [3], in [4], in [5] and in [6] was < 30% in each case. Moreover, the inhibition in series [7], in series [8] and in [9] was < 30% each time. In addition, the Ki in series [21] was 0.0156 µM; at PI3K p110 beta/p85 alpha it was 0.202 µM; in series [12], 0.0598 µM. The inhibition at 10 µM against CYP1A2 is < 30%. The same molecule returned an IC50 in [10] of 1.26 µM.

The record behind these values is ChEMBL document CHEMBL2086238, “Identification of ETP-46321, a potent and orally bioavailable PI3K α, δ inhibitor” (Bioorg Med Chem Lett, 2012).
